In the test the target is CGRP receptor (Homo sapiens, UniProt O60894+Q16602). The experiment in a line: CGRP radioligand binding assay ([125I]-CGRP displacement, SK-N-MC homogenate). On the set-up: endogenous in cells; host or cells: SK-N-MC cells (homogenate/membrane pellet). To be noted: displacement of [125I]-CGRP, room temperature 2 h. How it is done: CGRP Binding Assay. Tissue Culture. SK—N-MC cells were grown at 37° C. in 5% CO2 as a monolayer in medium consisting of MEM with Earle's salts and L-glutamine (Gibco) supplemented with 10% fetal bovine serum (Gibco). Cell Pellets. The cells were rinsed twice with phosphate-buffered saline (155 mM NaCl, 3.3 mM Na2HPO4, 1.1 mM KH2PO4, pH 7.4), and incubated for 5-10 min. at 4° C. in hypotonic lysis buffer consisting of 10 mM Tris (pH 7.4) and 5 mM EDTA. The cells were transferred from plates to polypropylene tubes (16×100 mm) and homogenized using a polytron. Homogenates were centrifuged at 32,000×g for 30 min. The pellets were resuspended in cold hypotonic lysis buffer with 0.1% mammalian protease inhibitor cocktail (Sigma) and assayed for protein concentration. The SK—N-MC homogenate was then aliquoted and stored at −80° C. until needed.
Sequence of CGRP receptor (Q16602 23-461): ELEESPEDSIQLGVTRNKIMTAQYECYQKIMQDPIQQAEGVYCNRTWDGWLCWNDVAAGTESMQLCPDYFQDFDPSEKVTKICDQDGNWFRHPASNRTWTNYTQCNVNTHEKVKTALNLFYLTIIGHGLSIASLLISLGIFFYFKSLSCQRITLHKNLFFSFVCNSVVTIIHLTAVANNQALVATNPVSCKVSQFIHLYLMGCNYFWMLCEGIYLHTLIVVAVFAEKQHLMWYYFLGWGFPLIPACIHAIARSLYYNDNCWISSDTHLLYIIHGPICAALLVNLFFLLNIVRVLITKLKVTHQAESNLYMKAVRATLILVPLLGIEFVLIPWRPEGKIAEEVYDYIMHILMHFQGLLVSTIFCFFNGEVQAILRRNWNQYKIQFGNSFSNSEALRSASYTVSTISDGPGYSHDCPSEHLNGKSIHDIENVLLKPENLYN
Sequence of CGRP receptor (O60894 27-148): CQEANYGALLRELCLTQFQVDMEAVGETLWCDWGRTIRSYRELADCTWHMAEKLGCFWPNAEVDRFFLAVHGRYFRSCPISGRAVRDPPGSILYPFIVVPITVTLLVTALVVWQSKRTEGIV
Radioligand Binding Assay. The compounds of invention were solubilized and carried through serial dilutions using 100% DMSO. Aliquots from the compound serial dilutions were further diluted 25 fold into assay buffer (50 mM Tris-Cl pH 7.5, 5 mM MgCl2, 0.005% Triton X-100) and transferred (volume 50 μl) into 96 well assay plates. [^125I]-CGRP (Amersham Biosciences) was diluted to 60 pM in assay buffer and a volume of 50 μl was added to each well. SK—N-MC pellets were thawed, diluted in assay buffer with fresh 0.1% mammalian protease inhibitor cocktail (Sigma), and homogenized again. SK—N-MC homogenate (5 μg/well) was added in a volume of 100 μl. The assay plates were then incubated at room temperature for 2 h. Assays were stopped by addition of excess cold wash buffer (20 mM Tris-Cl pH 7.5, 0.1% BSA) immediately followed by filtration over glass fiber filters (Whatman GF/B) previously soaked in 0.5% PEI. Non-specific binding was defined with 1 μM beta-CGRP. Protein bound radioactivity was determined using a gamma or scintillation counter. The IC50 was defined as the concentration of a compound of invention required to displace 50% of radioligand binding.
The term IC50 denotes the concentration at which inhibition is half-maximal. High values mean weaker potency, low ones greater potency. `CC(C)(C)CN1Cc2c(cc(Cl)c3[nH]ncc23)C[C@@H](CC(=O)N2CCC(c3cc4ccc(F)cc4[nH]c3=O)CC2)C1=O` [Example 120]: the IC50 lay in the range of 0.1 to 10 nM.
In the case of `CC(C)(C)CN1Cc2c(cc(Cl)c3[nH]ncc23)C[C@@H](CC(=O)N2CCC(c3cc4cccnc4[nH]c3=O)CC2)C1=O` [Example 79, 1-[[(7S)-4-chloro-9-(2,2-dimethylpropyl)-3,6,7,8,9,10-hexahydro-8-oxoazepino[3,4-e]indazol-7-yl]acetyl]-4-(1,2-dihydro-2-oxo-1,8-naphthyridin-3-yl)-piperidine] it was 0.1 to 10 nM; in that of `CN1Cc2c(cc(Cl)c(O)c2Cl)CC(NC(=O)N2CCC(N3Cc4ccccc4NC3=O)CC2)C1=O` (stereo not drawn) [Example 33, 4-(2-Oxo-1,4-dihydro-2H-quinazolin-3-yl)-piperidine-1-carboxylic acid (7,9-dichloro-8-hydroxy-2-methyl-3-oxo-2,3,4,5-tetrahydro-1H-benzo[c]azepin-4-yl)-amide], greater than 1000 nM.
As to `O=C(C[C@@H]1Cc2cc(Cl)c3[nH]ncc3c2CN(CC(F)(F)F)C1=O)N1CCC(c2cc3cccc(F)c3[nH]c2=O)CC1` [Example 91, (S)-4-chloro-7-(2-(4-(8-fluoro-2-oxo-1,2-dihydroquinolin-3-yl)piperidin-1-yl)-2-oxoethyl)-9-(2,2,2-trifluoroethyl)-6,7,9,10-tetrahydroazepino[3,4-e]indazol-8(3H)-one], the IC50 is 0.1 to 10 nM.
Molecule `CC(C)(C)CN1Cc2c(cc(Cl)c3[nH]ncc23)C[C@@H](CC(=O)N2CCC(c3cc4ccc(Cl)cc4[nH]c3=O)CC2)C1=O` [Example 116] yielded an IC50 of 0.1 to 10 nM.
To `CC(C)(C)CN1Cc2c(cc(Cl)c3[nH]ncc23)C[C@@H](CC(=O)N2CCC(C3C(=O)c4ccccc4NS3(=O)=O)CC2)C1=O` (stereo partly drawn) [Example 76, 1-[[7-(S)-4-choro-9-(2,2-Dimethylpropyl)-3,6,7,8,9,10-hexahydro-8-oxoazepino[3,4-e]indazol-7-yl]acetyl]-4-(3,4-dihydro-2,2-dioxido-4-oxo-1H-2,1-benzothiazin-3-yl)piperidine] belongs 10 to 100 nM; to `Cc1cc2c(c3cn[nH]c13)CN(CC(C)(C)C)C(=O)[C@H](CC(=O)N1CCC(c3cc4cccc(F)c4[nH]c3=O)CC1)C2` [Example 101, (S)-7-(2-(4-(8-fluoro-2-oxo-1,2-dihydroquinolin-3-yl)piperidin-1-yl)-2-oxoethyl)-4-methyl-9-neopentyl-6,7,9,10-tetrahydroazepino[3,4-e]indazol-8(3H)-one], 10 to 100 nM; to `CC(C)(C)CN1Cc2c(cc(Br)c3[nH]ncc23)C[C@@H](CC(=O)N2CCC(c3cc4cccc(F)c4[nH]c3=O)CC2)C1=O` [Example 95, (S)-4-bromo-7-(2-(4-(8-fluoro-2-oxo-1,2-dihydroquinolin-3-yl)piperidin-1-yl)-2-oxoethyl)-9-neopentyl-6,7,9,10-tetrahydroazepino[3,4-e]indazol-8(3H)-one], 10 to 100 nM.
The molecule `C[C@@H](c1ccccc1)N1Cc2c(ccc3[nH]ncc23)C[C@@H](NC(=O)N2CCC3(CC2)NC(=O)Nc2ccccc23)C1=O` [Example 9, ′^1H-Spiro[piperidine-4,4′-quinazolin]-2′(3′H)-one-1-carboxylic acid [8-oxo-9-(1-(S)-phenyl-ethyl)-3,6,7,8,9,10-hexahydro-2,3,9-triaza-(R)-cyclohepta[e]inden-7-yl]-amide] returned an IC50 of 100 to 1000 nM.
In the case of `CN1Cc2cc(OCc3ccccc3)ccc2CC(NC(=O)N2CCC(N3Cc4ccccc4NC3=O)CC2)C1=O` (stereo not drawn) [Example 31, 4-(2-Oxo-1,4-dihydro-2H-quinazolin-3-yl)-piperidine-1-carboxylic acid (8-benzyloxy-2-methyl-3-oxo-2,3,4,5-tetrahydro-1H-benzo[c]azepin-4-yl)-amide] it was greater than 1000 nM; in that of `CC(C)(C)CN1Cc2c(cc(Cl)c3[nH]ncc23)C[C@@H](CC(=O)N2CCC(C3=Cc4ccccc4NS3(=O)=O)CC2)C1=O` [Example 92], 10 to 100 nM; in that of `O=C(N[C@@H]1Cc2ccc3[nH]ncc3c2CN(CCN2CCCCC2)C1=O)N1CCC(N2Cc3ccccc3NC2=O)CC1` [Example 3, 4-(2-Oxo-1,4-dihydro-2H-quinazolin-3-yl)-piperidine-1-carboxylic acid [8-oxo-9-(2-piperidin-1-yl-ethyl)-3,6,7,8,9,10-hexahydro-2,3,9-triaza-(R)-cyclohepta[e]inden-7-yl]-amide], 100 to 1000 nM.
In the case of `CN1Cc2cc(O)ccc2CC(NC(=O)N2CCC(N3Cc4ccccc4NC3=O)CC2)C1=O` (stereo not drawn) [Example 32, 4-(2-Oxo-1,4-dihydro-2H-quinazolin-3-yl)-piperidine-1-carboxylic acid (8-hydroxy-2-methyl-3-oxo-2,3,4,5-tetrahydro-1H-benzo[c]azepin-4-yl)-amide] it was 100 to 1000 nM; in that of `CC(C)(C)CN1Cc2c(cc(Cl)c3[nH]ncc23)C[C@@H](CC(=O)N2CCC(c3cc4ccc(F)nc4[nH]c3=O)CC2)C1=O` [Example 119], greater than 1000 nM.
In the case of `CC(C)(C)CN1Cc2c(ccc3[nH]ncc23)CC(NC(=O)N2CCC3(CC2)NC(=O)Nc2ccccc23)C1=O` (stereo not drawn) [Example 23, N-[9-(2,2-dimethylpropyl)-8-oxo-3,6,7,8,9,10-hexahydroazepino[3,4-e]indazol-7-yl]-2′-oxo-2′,3′dihydro-1H, 1′H-spiro[piperidine-4,4′-quinazoline]-1-carboxamide], the IC50 fell in the range of 10 to 100 nM.
To `COCCN1Cc2c(cc(Br)c3[nH]ncc23)C[C@@H](CC(=O)N2CCC(c3cc4ccccc4[nH]c3=O)CC2)C1=O` [Example 113, (S)-4-bromo-9-(2-methoxyethyl)-7-(2-oxo-2-(4-(2-oxo-1,2-dihydroquinolin-3-yl)piperidin-1-yl)ethyl)-6,7,9,10-tetrahydroazepino[3,4-e]indazol-8(3H)-one] belongs 0.1 to 10 nM; to `CC(C)(C)CN1Cc2c(cc(Cl)c3[nH]ncc23)C[C@@H](CC(=O)N2CCC(c3nc4ccccc4[nH]c3=O)CC2)C1=O` [Example 48, (S)-4-Chloro-9-neopentyl-7-(2-oxo-2-(4-(3-oxo-3,4-dihydroquinoxalin-2-yl)piperidin-1-yl)ethyl)-6,7,9,10-tetrahydroazepino[3,4-e]indazol-8(3H)-one], 10 to 100 nM; to `CC(C)(C)CN1Cc2c(cc(Br)c3[nH]ncc23)C[C@@H](CC(=O)N2CCC(c3cc4ccccc4[nH]c3=O)CC2)C1=O` [Example 94, (S)-4-bromo-9-neopentyl-7-(2-oxo-2-(4-(2-oxo-1,2-dihydroquinolin-3-yl)piperidin-1-yl)ethyl)-6,7,9,10-tetrahydroazepino[3,4-e]indazol-8(3H)-one], 0.1 to 10 nM.
`O=C1Nc2ccccc2C2(CCN(C(=O)N[C@@H]3Cc4ccc5[nH]ncc5c4CN(Cc4ccc(C(F)(F)F)cc4)C3=O)CC2)N1` [Example 14, ′H-spiro[piperidine-4,4′-quinazolin]-2′(3′H)-one-1-carboxylic acid [8-oxo-9-(4-trifluoromethyl-benzyl)-3,6,7,8,9,10-hexahydro-2,3,9-triaza-(R)-cyclohepta[e]inden-7-yl]-amide] came in with an IC50 of 100 to 1000 nM.
`CC(C)c1cc2c(c3cn[nH]c13)CN(CC(F)(F)F)C(=O)[C@H](CC(=O)N1CCC(c3cc4ccccc4[nH]c3=O)CC1)C2` [Example 106, (S)-4-isopropyl-7-(2-oxo-2-(4-(2-oxo-1,2-dihydroquinolin-3-yl)piperidin-1-yl)ethyl)-9-(2,2,2-trifluoroethyl)-6,7,9,10-tetrahydroazepino[3,4-e]indazol-8(3H)-one] yielded an IC50 of 10 to 100 nM.
In the case of `CC(C)(C)CN1Cc2c(ccc3[nH]ncc23)C[C@@H](CC(=O)N2CCC(c3cnc4ccccc4c3)CC2)C1=O` [Example 72, 1-[[7-(S)-9-(2,2-Dimethylpropyl)-3,6,7,8,9,10-hexahydro-8-oxoazepino[3,4-e]indazol-7-yl]acetyl]-4-(3-quinolinyl)piperidine] it was greater than 1000 nM.
`CC(C)(C)CN1Cc2c(cc(Cl)c3[nH]ncc23)C[C@@H](N/C(=N/C#N)N2CCC(c3cc4ccccc4[nH]c3=O)CC2)C1=O` [Example 99]: the IC50 was in the range of 0.1 to 10 nM.
To `CN1Cc2c(ccc3[nH]ncc23)C[C@@H](NC(=O)N2CCC(N3Cc4ccccc4NC3=O)CC2)C1=O` [Example 2, 4-(2-Oxo-1,4-dihydro-2H-quinazolin-3-yl)-piperidine-1-carboxylic acid (9-methyl-8-oxo-3,6,7,8,9,10-hexahydro-2,3,9-triaza-(R)-cyclohepta[e]inden-7-yl)-amide] belongs 100 to 1000 nM; to `CC(C)(C)CN1Cc2c(cc(Cl)c3[nH]ncc23)C[C@@H](CC(=O)N2CCC(c3ccc(Cl)cc3Cl)CC2)C1=O` [Example 93, (S)-4-chloro-7-(2-(4-(2,4-dichlorophenyl)piperidin-1-yl)-2-oxoethyl)-9-neopentyl-6,7,9,10-tetrahydroazepino[3,4-e]indazol-8(3H)-one], 100 to 1000 nM.

Values taken from patent US7384931B2, “Constrained compounds as CGRP-receptor antagonists” (Bristol-Myers Squibb Company, priority 2004, dated 2008).
